# Experimental data from patent publication US20260042731A1, “(2,4-DICHLOROPHENOXY)ACETIC ACID ANALOGS” (CORTEVA AGRISCIENCE LLC, priority 2022, published 2026).
# Like-named read-outs stand apart in the source and are kept apart here.
# Key:
# [1] = system: Amaranthus rudis (AMATA), tall water hemp; assay: Postemergence herbicide evaluation, growth of Amaranthus rudis (AMATA); format: in vivo; conditions: Amaranthus tuberculatus, post-emergence, read-out: Ave. AMATA
# [2] = system: Ambrosia artemisiifolia (AMBEL), common ragweed; assay: Postemergence herbicide evaluation, growth of Ambrosia artemisiifolia (AMBEL); format: in vivo; conditions: Ambrosia artemisiifolia, post-emergence, read-out: AVE. AMBEL
# [3] = system: Abutilon theophrasti (ABUTH), velvetleaf; assay: Postemergence herbicide evaluation, growth of Abutilon theophrasti (ABUTH); format: in vivo; conditions: Abutilon theophrasti, post-emergence, read-out: AVE. ABUTH
# [4] = system: Chenopodium album (CHEAL), common lambsquarters; assay: Postemergence herbicide evaluation, growth of Chenopodium album (CHEAL); format: in vivo; conditions: Chenopodium album, post-emergence, read-out: Ave. CHEAL
# [5] = system: glyphosate resistant Conyza canadensis (L.) (ERICA), horseweed; assay: Postemergence herbicide evaluation, growth of Conyza canadensis (ERICA); format: in vivo; conditions: Erigeron canadensis, post-emergence, read-out: Ave. ERICA
# [6] = Volatility of compounds measured by thermogravimetric analysis (TGA); format: physicochemical
# [7] = system: weeds (ABUTH, AMATA, AMBEL, CHEAL, ERICA); assay: Postemergence herbicide evaluation, overall average % weed control across ABUTH, AMATA, AMBEL, CHEAL, ERICA; format: in vivo; conditions: post-emergence, read-out: Overall Ave % Weed Control
# [8] = 168 h, 280 g ae/ha, 7 DAA, percent reduction in plant size relative to untreated control
# [9] = 168 h, 560 g ae/ha, 7 DAA, percent reduction in plant size relative to untreated control
# [10] = 336 h, 280 g ae/ha, 14 DAA, percent reduction in plant size relative to untreated control
# [11] = 336 h, 560 g ae/ha, 14 DAA, percent reduction in plant size relative to untreated control
# [12] = 504 h, 280 g ae/ha, 21 DAA, percent reduction in plant size relative to untreated control
# [13] = 504 h, 560 g ae/ha, 21 DAA, percent reduction in plant size relative to untreated control
# [14] = 168 h, 280 g ae/ha, 7 DAA, average over the five weeds
# [15] = 168 h, 560 g ae/ha, 7 DAA, average over the five weeds
# [16] = 336 h, 280 g ae/ha, 14 DAA, average over the five weeds
# [17] = 336 h, 560 g ae/ha, 14 DAA, average over the five weeds
# [18] = 504 h, 280 g ae/ha, 21 DAA, average over the five weeds
# [19] = 504 h, 560 g ae/ha, 21 DAA, average over the five weeds
smiles,measurement,setting,value
O=C(COc1ccc(Cl)cc1Cl)NOc1ccccc1 [Compound D7],pest or weed control at 280 g/ha,[1]; [8],73%
same,pest or weed control at 560 g/ha,[1]; [9],80%
same,pest or weed control at 280 g/ha,[1]; [10],83%
same,pest or weed control at 560 g/ha,[1]; [11],90%
same,pest or weed control at 280 g/ha,[1]; [12],83%
same,pest or weed control at 560 g/ha,[1]; [13],83%
same,pest or weed control at 280 g/ha,[2]; [8],63%
same,pest or weed control at 560 g/ha,[2]; [9],73%
same,pest or weed control at 280 g/ha,[2]; [10],83%
same,pest or weed control at 560 g/ha,[2]; [11],89%
same,pest or weed control at 280 g/ha,[2]; [12],95%
same,pest or weed control at 560 g/ha,[2]; [13],97%
same,pest or weed control at 280 g/ha,[3]; [8],68%
same,pest or weed control at 560 g/ha,[3]; [9],80%
same,pest or weed control at 280 g/ha,[3]; [10],68%
same,pest or weed control at 560 g/ha,[3]; [11],85%
same,pest or weed control at 280 g/ha,[3]; [12],70%
same,pest or weed control at 560 g/ha,[3]; [13],92%
same,pest or weed control at 280 g/ha,[4]; [8],65%
same,pest or weed control at 560 g/ha,[4]; [9],68%
same,pest or weed control at 280 g/ha,[4]; [10],70%
same,pest or weed control at 560 g/ha,[4]; [11],75%
same,pest or weed control at 280 g/ha,[4]; [12],70%
same,pest or weed control at 560 g/ha,[4]; [13],78%
same,pest or weed control at 280 g/ha,[5]; [8],63%
same,pest or weed control at 560 g/ha,[5]; [9],63%
same,pest or weed control at 280 g/ha,[5]; [10],83%
same,pest or weed control at 560 g/ha,[5]; [11],85%
same,pest or weed control at 280 g/ha,[5]; [12],95%
same,pest or weed control at 560 g/ha,[5]; [13],95%
same,"TGA Data (rate of weight loss, volatility)",[6],0.2 µg/min
same,pest or weed control at 280 g/ha,[7]; [14],66%
same,pest or weed control at 560 g/ha,[7]; [15],73%
same,pest or weed control at 280 g/ha,[7]; [16],77%
same,pest or weed control at 560 g/ha,[7]; [17],85%
same,pest or weed control at 280 g/ha,[7]; [18],82%
same,pest or weed control at 560 g/ha,[7]; [19],89%
"CN(NC(=O)COc1ccc(Cl)cc1Cl)C(=O)c1ccccc1 [Compound D9, N′-(2-(2,4-Dichlorophenoxy)acetyl)-N-methylbenzohydrazide]",pest or weed control at 280 g/ha,[1]; [8],65%
same,pest or weed control at 560 g/ha,[1]; [9],68%
same,pest or weed control at 280 g/ha,[1]; [10],75%
same,pest or weed control at 560 g/ha,[1]; [11],70%
same,pest or weed control at 280 g/ha,[1]; [12],83%
same,pest or weed control at 560 g/ha,[1]; [13],73%
same,pest or weed control at 280 g/ha,[2]; [8],60%
same,pest or weed control at 560 g/ha,[2]; [9],73%
same,pest or weed control at 280 g/ha,[2]; [10],83%
same,pest or weed control at 560 g/ha,[2]; [11],94%
same,pest or weed control at 280 g/ha,[2]; [12],85%
same,pest or weed control at 560 g/ha,[2]; [13],99%
same,pest or weed control at 280 g/ha,[3]; [8],43%
same,pest or weed control at 560 g/ha,[3]; [9],43%
same,pest or weed control at 280 g/ha,[3]; [10],45%
same,pest or weed control at 560 g/ha,[3]; [11],48%
same,pest or weed control at 280 g/ha,[3]; [12],45%
same,pest or weed control at 560 g/ha,[3]; [13],50%
same,pest or weed control at 280 g/ha,[4]; [8],65%
same,pest or weed control at 560 g/ha,[4]; [9],65%
same,pest or weed control at 280 g/ha,[4]; [10],73%
same,pest or weed control at 560 g/ha,[4]; [11],78%
same,pest or weed control at 280 g/ha,[4]; [12],95%
same,pest or weed control at 560 g/ha,[4]; [13],90%
same,pest or weed control at 280 g/ha,[5]; [8],65%
same,pest or weed control at 560 g/ha,[5]; [9],68%
same,pest or weed control at 280 g/ha,[5]; [10],83%
same,pest or weed control at 560 g/ha,[5]; [11],88%
same,pest or weed control at 280 g/ha,[5]; [12],94%
same,pest or weed control at 560 g/ha,[5]; [13],65%
same,"TGA Data (rate of weight loss, volatility)",[6],0.2 µg/min
same,pest or weed control at 280 g/ha,[7]; [14],60%
same,pest or weed control at 560 g/ha,[7]; [15],63%
same,pest or weed control at 280 g/ha,[7]; [16],72%
same,pest or weed control at 560 g/ha,[7]; [17],75%
same,pest or weed control at 280 g/ha,[7]; [18],80%
same,pest or weed control at 560 g/ha,[7]; [19],75%
"O=C(COc1ccc(Cl)cc1Cl)OCc1ccccc1 [Compound E4, Benzyl 2-(2,4-dichlorophenoxy)acetate]",pest or weed control at 280 g/ha,[1]; 168 h,68%
same,pest or weed control at 560 g/ha,[1]; 168 h,78%
same,pest or weed control at 280 g/ha,[1]; 336 h,65%
same,pest or weed control at 560 g/ha,[1]; 336 h,93%
same,pest or weed control at 280 g/ha,[1]; 504 h,70%
same,pest or weed control at 560 g/ha,[1]; 504 h,91%
same,pest or weed control at 280 g/ha,[2]; 168 h,68%
same,pest or weed control at 560 g/ha,[2]; 168 h,73%
same,pest or weed control at 280 g/ha,[2]; 336 h,89%
same,pest or weed control at 560 g/ha,[2]; 336 h,97%
same,pest or weed control at 280 g/ha,[2]; 504 h,99%
same,pest or weed control at 560 g/ha,[2]; 504 h,99%
same,pest or weed control at 280 g/ha,[3]; 168 h,90%
same,pest or weed control at 560 g/ha,[3]; 168 h,90%
same,pest or weed control at 280 g/ha,[3]; 336 h,97%
same,pest or weed control at 560 g/ha,[3]; 336 h,97%
same,pest or weed control at 280 g/ha,[3]; 504 h,99%
same,pest or weed control at 560 g/ha,[3]; 504 h,98%
same,pest or weed control at 280 g/ha,[4]; 168 h,73%
same,pest or weed control at 560 g/ha,[4]; 168 h,70%
same,pest or weed control at 280 g/ha,[4]; 336 h,83%
same,pest or weed control at 560 g/ha,[4]; 336 h,73%
same,pest or weed control at 280 g/ha,[4]; 504 h,88%
same,pest or weed control at 560 g/ha,[4]; 504 h,75%
same,pest or weed control at 280 g/ha,[5]; 168 h,70%
same,pest or weed control at 560 g/ha,[5]; 168 h,75%
same,pest or weed control at 280 g/ha,[5]; 336 h,88%
same,pest or weed control at 560 g/ha,[5]; 336 h,93%
same,pest or weed control at 280 g/ha,[5]; 504 h,95%
same,pest or weed control at 560 g/ha,[5]; 504 h,99%
same,"TGA Data (rate of weight loss, volatility)",[6],0.4 µg/min
same,pest or weed control at 280 g/ha,[7]; 168 h,74%
same,pest or weed control at 560 g/ha,[7]; 168 h,77%
same,pest or weed control at 280 g/ha,[7]; 336 h,84%
same,pest or weed control at 560 g/ha,[7]; 336 h,90%
same,pest or weed control at 280 g/ha,[7]; 504 h,90%
same,pest or weed control at 560 g/ha,[7]; 504 h,92%
